# The supplement of paper PMC10307832
# Experiments:
# Experiment in all cases: relative viability (nuclei count vs DMSO), 5 days (fraction); higher = more cells survive
# Salubrinal + Lapatinib = compound: O=C(/C=C/c1ccccc1)NC(NC(=S)Nc1cccc2cccnc12)C(Cl)(Cl)Cl [Salubrinal] + CS(=O)(=O)CCNCc1ccc(-c2ccc3ncnc(Nc4ccc(OCc5cccc(F)c5)c(Cl)c4)c3c2)o1 [Lapatinib] (partner 2 µM)
# Summary of the method: (§1)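 Relative viability equals treated-well nuclei counts divided by vehicle-well nuclei counts. Counts came from 4× images of lung cancer cell lines grown in 1536-well plates for 5 days after pin-tool dosing on the day after seeding. Dosing used one drug alone or a fixed anchor-drug dose plus five library-drug doses (not always all listed) in √10 steps, and values are medians of duplicate plates.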
# [1] = compound: Cc1ccc2nc(NCCN)c3ncc(C)n3c2c1 + Cc1nc(NC(=O)N2CCC[C@H]2C(N)=O)sc1-c1ccnc(C(C)(C)C(F)(F)F)c1 [Alpelisib] (partner 2 µM)
# Summary of the method: as §1
# [2] = compound: Cc1ccc2nc(NCCN)c3ncc(C)n3c2c1 + Nc1nc2[nH]cc(CCc3ccc(C(=O)N[C@@H](CCC(=O)O)C(=O)O)cc3)c2c(=O)[nH]1 [Pemetrexed] (partner 0.2 µM)
# Summary of the method: as §1
# Salubrinal + Decitabine = compound: O=C(/C=C/c1ccccc1)NC(NC(=S)Nc1cccc2cccnc12)C(Cl)(Cl)Cl [Salubrinal] + Nc1ncn([C@H]2C[C@H](O)[C@@H](CO)O2)c(=O)n1 [Decitabine] (partner 2 µM)
# Summary of the method: as §1
cell line,measurement,setting,value
UMC-11,relative viability,Salubrinal + Lapatinib; first compound 0.08 µM,0.931
same,relative viability,Salubrinal + Lapatinib; first compound 0.253 µM,0.918
same,relative viability,Salubrinal + Lapatinib; first compound 0.8 µM,1.48
same,relative viability,Salubrinal + Lapatinib; first compound 2.53 µM,1.11
same,relative viability,Salubrinal + Lapatinib; first compound 8 µM,1.16
same,relative viability,[1]; first compound 0.04 µM,0.946
same,relative viability,[1]; first compound 0.1265 µM,0.906
same,relative viability,[1]; first compound 0.4 µM,1.03
same,relative viability,[1]; first compound 1.265 µM,0.995
same,relative viability,[1]; first compound 4 µM,0.817
same,relative viability,[2]; first compound 0.04 µM,0.858
same,relative viability,[2]; first compound 0.1265 µM,0.744
same,relative viability,[2]; first compound 0.4 µM,0.808
same,relative viability,[2]; first compound 1.265 µM,0.734
same,relative viability,[2]; first compound 4 µM,0.674
same,relative viability,Salubrinal + Decitabine; first compound 0.08 µM,0.548
same,relative viability,Salubrinal + Decitabine; first compound 0.253 µM,0.608
same,relative viability,Salubrinal + Decitabine; first compound 0.8 µM,0.674
same,relative viability,Salubrinal + Decitabine; first compound 2.53 µM,0.606
same,relative viability,Salubrinal + Decitabine; first compound 8 µM,0.561
